A word on the EC50: it is the concentration at which the effect is half-maximal. The term IC50 denotes the concentration that gives 50% inhibition.

The record followed here is patent US10669272B2, “Substituted naphthyridinone compounds useful as T cell activators” (BRISTOL-MYERS SQUIBB COMPANY, priority 2018, dated 2020).

Like-named read-outs stand apart in the source and are kept apart here.

The subject of one experiment is Human venous whole blood. The experiment in a line: Human whole blood IFN-γ assay.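 Further: blood from healthy donors exposed to compound for 1 h before stimulation with anti-CD3 and anti-CD28 at 1 µg/mL each, IFN-γ quantified in supernatant by AlphaLISA.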 Format: cell-based. Particulars: human whole blood, read-out: INFg Whole Blood Normalized Agonist EC50.
The target in a further experiment is T1, human DGKα (Homo sapiens, UniProt P23743).
T1 construct: TVMV protease cleavage site (C); Hexa-His (C); made in house; host or cells: Sf9 insect cells (baculovirus, Bac-to-Bac)
The experiment in a line: DGKα LIPGLO assay (extruded liposome substrate), in vitro DGK inhibition. Format: biochemical. The following applies: read-out: DGKa LIPGLO IC50.

The next experiment addresses T2, human DGKζ (Homo sapiens, UniProt Q13574).
T2 construct: TVMV protease cleavage site (C); Hexa-His (C); made in house; host or cells: Sf9 insect cells (baculovirus, Bac-to-Bac)
In words: DGKζ LIPGLO assay (extruded liposome substrate), in vitro DGK inhibition. Format: biochemical. The following applies: read-out: DGKz LIPGLO IC50.

Where [1] appears, read: normalized to 3 μM reference compound with anti-CD3 plus anti-CD28 as 100% activation.
Setting [2] is: Homo sapiens, 24 h, normalized to 3 μM reference compound with anti-CD3 plus anti-CD28 as 100% activation.
[3] abbreviates: anti-CD3 plus anti-CD28, 24 hours, 3 μM reference compound = 100% activation.

T2 sequence (Q13574 with tags, fused parts or gaps isoform Q13574-4): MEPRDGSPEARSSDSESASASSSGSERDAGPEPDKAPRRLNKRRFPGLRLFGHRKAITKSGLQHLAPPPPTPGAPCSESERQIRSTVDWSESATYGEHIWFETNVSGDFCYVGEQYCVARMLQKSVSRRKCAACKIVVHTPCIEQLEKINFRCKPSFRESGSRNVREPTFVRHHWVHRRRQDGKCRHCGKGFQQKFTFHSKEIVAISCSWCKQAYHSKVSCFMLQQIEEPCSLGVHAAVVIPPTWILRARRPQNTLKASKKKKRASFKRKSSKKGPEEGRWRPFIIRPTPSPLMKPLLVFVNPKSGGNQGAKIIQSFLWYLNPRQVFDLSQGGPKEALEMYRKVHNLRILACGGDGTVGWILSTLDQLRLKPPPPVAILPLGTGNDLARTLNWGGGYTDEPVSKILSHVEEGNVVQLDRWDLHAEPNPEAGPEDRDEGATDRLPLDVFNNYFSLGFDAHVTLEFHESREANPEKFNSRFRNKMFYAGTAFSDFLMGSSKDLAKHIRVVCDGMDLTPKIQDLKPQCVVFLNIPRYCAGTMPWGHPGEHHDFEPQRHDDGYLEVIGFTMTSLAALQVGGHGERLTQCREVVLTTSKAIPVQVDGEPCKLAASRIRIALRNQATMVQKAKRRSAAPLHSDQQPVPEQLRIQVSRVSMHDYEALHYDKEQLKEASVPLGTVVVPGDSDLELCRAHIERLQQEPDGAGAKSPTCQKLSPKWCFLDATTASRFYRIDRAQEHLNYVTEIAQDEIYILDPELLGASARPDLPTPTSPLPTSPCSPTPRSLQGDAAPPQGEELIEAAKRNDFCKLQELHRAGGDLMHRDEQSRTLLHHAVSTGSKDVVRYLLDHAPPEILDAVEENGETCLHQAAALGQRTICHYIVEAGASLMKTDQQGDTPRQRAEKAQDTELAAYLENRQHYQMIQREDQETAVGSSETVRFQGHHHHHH
T1 sequence (P23743 with tags, fused parts or gaps): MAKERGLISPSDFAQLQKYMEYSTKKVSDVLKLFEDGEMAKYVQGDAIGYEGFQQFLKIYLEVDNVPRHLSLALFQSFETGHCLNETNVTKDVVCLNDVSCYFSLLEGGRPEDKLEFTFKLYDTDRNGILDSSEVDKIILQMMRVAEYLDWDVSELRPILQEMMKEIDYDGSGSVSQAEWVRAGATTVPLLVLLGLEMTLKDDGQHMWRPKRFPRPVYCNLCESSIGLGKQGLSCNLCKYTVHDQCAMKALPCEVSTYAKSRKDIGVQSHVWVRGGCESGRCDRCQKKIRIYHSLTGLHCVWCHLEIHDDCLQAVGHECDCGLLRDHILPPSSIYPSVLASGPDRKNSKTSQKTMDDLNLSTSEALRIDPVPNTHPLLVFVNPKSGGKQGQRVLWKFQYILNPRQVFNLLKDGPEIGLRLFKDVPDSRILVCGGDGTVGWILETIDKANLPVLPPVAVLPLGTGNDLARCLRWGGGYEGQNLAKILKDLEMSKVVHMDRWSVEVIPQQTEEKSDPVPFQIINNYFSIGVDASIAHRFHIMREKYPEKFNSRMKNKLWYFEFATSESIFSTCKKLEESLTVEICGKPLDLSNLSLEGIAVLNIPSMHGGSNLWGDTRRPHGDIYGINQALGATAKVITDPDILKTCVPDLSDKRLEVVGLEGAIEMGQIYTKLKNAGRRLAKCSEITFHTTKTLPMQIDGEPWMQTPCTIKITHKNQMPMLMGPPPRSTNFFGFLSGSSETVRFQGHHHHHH
Procedure for Human venous whole blood: Human Whole Blood IFN-γ Assay
Human venous whole blood (22.5 μL per well), obtained from healthy donors, was pre-treated with compounds for one hour at 37° C. in a humidified 95% air/5% CO2 incubator. The blood was stimulated with 2.5 μL anti-human CD3 and anti-CD28 mAb at a final concentration of 1 μg/mL each for 24 hours at 37° C. IFN-γ in the supernatants was measured using AlphLISA kit (Cat # AL217).

Turning to `CCC(c1ccc(C2CC2)cc1F)N1C[C@H](CC)N(c2cc(=O)n(C)c3ccc(C#N)nc23)C[C@H]1CC` (single isomer, unassigned) [Example 1359], the EC50 in the experiment on Human venous whole blood (setting [1]) is 0.044 µM. The results for the 50% inhibitory concentration (IC50) on human DGKα (liposome (LIPGLO) assay) and on human DGKζ (liposome (LIPGLO) assay) were 0.052 µM and 0.025 µM, respectively.
With `CC(c1cccc(OC(F)(F)F)c1)N1C[C@H](C)N(c2cc(=O)n(C)c3ccc(C#N)nc23)C[C@H]1C` (single isomer, unassigned) [Example 1268], the EC50 in the experiment on Human venous whole blood (setting [2]) came to 5.2 µM. For the same molecule, the figures for the IC50 on human DGKα (liposome (LIPGLO) assay) and at human DGKζ (liposome (LIPGLO) assay) were 2.1 µM and 1 µM, respectively.
For the molecule `CC[C@@H]1CN(c2cc(=O)n(C)c3ccc(C#N)nc23)[C@@H](C)CN1C(c1ccc(F)cc1)c1nc(C2CC2)cs1` (single isomer, unassigned) [Example 1338], the EC50 in the experiment with Human venous whole blood (setting [2]) was 0.13 µM. Further, the IC50 at human DGKα (liposome (LIPGLO) assay) worked out at 0.069 µM; at human DGKζ (liposome (LIPGLO) assay), 0.029 µM.
Consider `C[C@@H]1CN(c2cc(=O)[nH]c3ccc(C#N)nc23)[C@@H](C)CN1C(c1ccc(F)cc1)c1ccc(C#N)cc1` (single isomer, unassigned) [Example 1337], for which, in the experiment with Human venous whole blood (setting [2]), the EC50 was determined as 2.7 µM. Further, the half-inhibitory concentration (IC50) on human DGKα (liposome (LIPGLO) assay) came to 1.8 µM; on human DGKζ (liposome (LIPGLO) assay) it was 8.2 µM.
Regarding `CC(c1ccc(OC(F)(F)F)cc1)N1C[C@H](C)N(c2cc(=O)n(C)c3ccc(C#N)nc23)C[C@H]1C` (single isomer, unassigned) [Example 435], the EC50 in the experiment with Human venous whole blood (setting [1]) was 2.5 µM. Also, the IC50 on human DGKα (liposome (LIPGLO) assay) amounted to 1.1 µM; on human DGKζ (liposome (LIPGLO) assay), 4.9 µM.
In the same order, the values of `CC[C@H]1CN(C(C)c2ccc(OC(F)(F)F)cc2)[C@H](CC)CN1c1cc(=O)n(C)c2ccc(C#N)nc12` (single isomer, unassigned) [Example 1054] are 2.7 µM, 0.47 µM and 0.59 µM.
`CCc1ccccc1C(c1ccc(F)cc1)N1CCN(c2c(C#N)c(=O)n(C)c3ccc(C#N)nc23)C[C@H]1C` (stereo partly drawn) [Example 877]: the EC50 in the experiment on Human venous whole blood (setting [3]) is 6 µM. Besides, the IC50 was 5.1 µM at human DGKα (DGKα liposome (LIPGLO) assay) and 0.24 µM on human DGKζ (DGKζ liposome (LIPGLO) assay).
Turning to `C[C@@H]1CN(c2c(C#N)c(=O)n(C)c3ccc(C#N)nc23)CCN1Cc1ccc(C(C)(C)C)cc1` [Example 1013], the EC50 in the experiment with Human venous whole blood (Homo sapiens, 24 h, anti-CD3 plus anti-CD28, 24 hours, 3 μM reference compound = 100% activation) was 1.4 µM. The IC50 stood at 7.3 µM at human DGKα (DGKα liposome (LIPGLO) assay) and 47 µM at human DGKζ (DGKζ liposome (LIPGLO) assay).
As to `Cc1ccc(C(c2ccc(Cl)cc2)N2CCN(c3c(C#N)c(=O)n(C)c4ccc(C#N)nc34)C[C@H]2C)cc1` (single isomer, unassigned) [Example 944], the EC50 in the experiment on Human venous whole blood (setting [3]) worked out at 6.7 µM. Besides, the figures for the IC50 at human DGKα (DGKα liposome (LIPGLO) assay) and on human DGKζ (DGKζ liposome (LIPGLO) assay) were 37 µM and 41 µM, respectively.
Regarding `C[C@@H]1CN(c2c(F)c(=O)n(C)c3ccc(C#N)nc23)[C@@H](C)CN1C(c1ccc(F)cc1)c1ccc(C(F)(F)F)cc1` (stereo partly drawn) [Example 325, 7-fluoro-8-((2S,5R)-4-((4-fluorophenyl)(4-(trifluoromethyl)phenyl)methyl)-2,5-dimethylpiperazin-1-yl)-5-methyl-6-oxo-5,6-dihydro-1,5-naphthyridine-2-carbonitrile], in the experiment on Human venous whole blood (setting [1]), the EC50 turned out to be 3.2 µM. The IC50 at human DGKα (liposome (LIPGLO) assay) was 0.68 µM; at human DGKζ (liposome (LIPGLO) assay) it was 2.3 µM.
Turning to `C[C@@H]1CN(c2cc(=O)n(C)c3ccc(C#N)nc23)[C@@H](C)CN1Cc1ccc(OC(F)(F)F)cc1Cl` [Example 607], the concentration for a half-maximal effect (EC50) in the experiment with Human venous whole blood (setting [2]) came out at 2 µM. Also, the IC50 at human DGKα (liposome (LIPGLO) assay) was found to be 1.9 µM; on human DGKζ (liposome (LIPGLO) assay), 7.6 µM.
Consider `C[C@@H]1CN(c2c(F)c(=O)n(C)c3ccc(C#N)nc23)[C@@H](C)CN1C(c1ccc(F)cc1)c1ccccc1F` (stereo partly drawn) [Example 334, 7-fluoro-8-((2S,5R)-4-((2-fluorophenyl)(4-fluorophenyl)methyl)-2,5-dimethylpiperazin-1-yl)-5-methyl-6-oxo-5,6-dihydro-1,5-naphthyridine-2-carbonitrile], for which the EC50 in the experiment on Human venous whole blood (setting [1]) turned out to be 1.9 µM. Besides, the IC50 on human DGKα (liposome (LIPGLO) assay) came to 0.5 µM; at human DGKζ (liposome (LIPGLO) assay), 0.56 µM.
Consider `C[C@@H]1CN(c2cc(=O)n(C)c3ccc(C#N)nc23)[C@@H](C)CN1C(CO)c1ccc(F)cc1` (single isomer, unassigned) [Example 558], for which, in the experiment on Human venous whole blood (setting [1]), the EC50 is 15 µM. Also, the figures for the IC50 on human DGKα (liposome (LIPGLO) assay) and on human DGKζ (liposome (LIPGLO) assay) were 10 µM and 100 µM, respectively.
